Values after ≈ are worked out from the molar mass of the structure shown. Read-outs that look alike come from different tables or passages of the source.
What was measured:
[1] = system: P. aeruginosa ATCC 35151; assay: MIC by micro-liquid dilution method (CLSI); type: cell-based; details: Pseudomonas aeruginosa, ATCC35151
[2] = system: A. baumannii ATCC 17978; assay: MIC by micro-liquid dilution method (CLSI); type: cell-based; details: Acinetobacter baumannii; A. baumannii ATCC17978; read-out: MIC
[3] = system: E. coli ATCC 25922; assay: MIC by micro-liquid dilution method (CLSI); type: cell-based; details: Escherichia coli
[4] = system: Acinetobacter baumannii ATCC 19606; assay: MIC on Acinetobacter baumannii strains; type: cell-based; details: ATCC19606
Procedure, shortened: (§1)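 Micro-liquid dilution per CLSI; 12-strain A. baumannii panel; endpoint = MIC.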

[5] = system: Acinetobacter baumannii ATCC-BAA-1605; assay: MIC on Acinetobacter baumannii strains; type: cell-based
Procedure, shortened: as §1

[6] = system: Acinetobacter baumannii ATCC-BAA-1789; assay: MIC on Acinetobacter baumannii strains; type: cell-based; details: ATCCBAA1789
Procedure, shortened: as §1

[7] = system: Acinetobacter baumannii ATCC-BAA-1792; assay: MIC on Acinetobacter baumannii strains; type: cell-based
Procedure, shortened: as §1

[8] = system: Acinetobacter baumannii ATCC-BAA-1793; assay: MIC on Acinetobacter baumannii strains; type: cell-based
Procedure, shortened: as §1

[9] = system: Acinetobacter baumannii ATCC-BAA-1795; assay: MIC on Acinetobacter baumannii strains; type: cell-based; details: ATCCBAA1795
Procedure, shortened: as §1

[10] = system: Pseudomonas aeruginosa PA14; assay: Lungs of immunosuppressed mice infected with Pseudomonas aeruginosa (1), lung bacterial load; type: in vivo; details: 24 hours after infection, total dosage 400 mg/kg, day, ip at 2 h, 4 h, 6 h, 8 h
Experimental: Pseudomonas aeruginosa PA14. 64 mice were intraperitoneally injected with 150 mg/kg cyclophosphamide on the first day and the fourth day to give immunosuppressed mice. […] [table] The mice were injected with 50 μL of bacterial solution (2×10^3 CFU) through the airway. 2 hours after the infection, 4 mice in the model group was sacrificed by removing cervical vertebra. Two hours after infection, the drugs were administered by groups, and the mice were administered intraperitoneally once at 2 hours, 4 hours, 6 hours, and 8 hours, a total of 4 times. Mice of each group were sacrificed by removing cervical vertebra 24 hours after infection, lung and kidney tissues were taken aseptically and put into sterilized tissue homogenate tubes, weighed, and an appropriate amount of normal saline (NS) was added, the mixture was homogenized by a homogenizer for 1 min, the lung tissues of the model group were diluted 10^4, 10^5, 10^6 times, the lung tissues of each administration group were diluted 10, 100 times, the kidney tissues of the model group were diluted 10^2, […], 10^4 times, and the lung tissues of each administration group were diluted 10 times, the obtained mixtures were coated on TSA plates using spiral coater, then incubated at 37° C. overnight, and the CFU was counted with a colony counter. Graphpad Prism mapping software was used to make scatter plots of lung tissue CFU. SPSS19.0 software was used to count CFU and average body weight, and analysis of variance was used to analyze differences between groups.

[11] = Body weight of mice in Pseudomonas aeruginosa lung infection experiment (1); type: in vivo, CD-1 (ICR) mice; details: Aztreonam group (400 mg/kg.day, ip)
Experimental: CD-1 (ICR) mice, provided by Beijing Charles River Laboratory Animal Technology Co., Ltd., weighing 23-27 g, 7 weeks old, female, a total of 64 mice.
The mice were weighed every day after the start of the experiment and the weight changes were recorded.
Graphpad Prism mapping software was used to make scatter plots of lung tissue CFU. SPSS19.0 software was used to count CFU and average body weight, and analysis of variance was used to analyze differences between groups.

[12] = system: K. pneumoniae ATCC BAA-205 (TEM-1/SHV-1/SHV-12); assay: MIC by micro-liquid dilution method (CLSI); type: cell-based, Klebsiella pneumonia; details: Klebsiella pneumoniae, ATCCBAA205
[13] = system: K. pneumoniae ATCC BAA-1705 (KPC-2); assay: MIC by micro-liquid dilution method (CLSI); type: cell-based, Klebsiella pneumonia; details: Klebsiella pneumoniae, ATCCBAA1705
[14] = system: K. pneumoniae ATCC BAA-2470 (NDM-1); assay: MIC by micro-liquid dilution method (CLSI); type: cell-based, Klebsiella pneumonia; details: Klebsiella pneumoniae, ATCCBAA2470

SMILES	MIC [1] [µg/mL]	MIC [2] [µg/mL]	MIC ([3]; E. coli ATCC25922, read-out: MIC) [µg/mL]	MIC [4] [µg/mL]	MIC ([5]; ATCCBAA1605) [µg/mL]	MIC [6] [µg/mL]	MIC ([7]; ATCCBAA1792, ATCC-BAA-1792, read-out: MIC) [µg/mL]	MIC ([8]; ATCCBAA1793, ATCC-BAA-1793, read-out: MIC) [µg/mL]	MIC [9] [µg/mL]	LOG10-of bacterial load [10]	Body weight on the fifth day [11] [g]	Body weight on the first day [11] [g]	Body weight on the fourth day [11] [g]	MIC [12] [µg/mL]	MIC [13] [µg/mL]	MIC [14] [µg/mL]	MIC ([3]; ATCC25922) [µg/mL]	MIC ([5]; ATCCBAA1605, ATCC-BAA-1605, read-out: MIC) [µg/mL]	MIC ([7]; ATCCBAA1792) [µg/mL]	MIC ([8]; ATCCBAA1793) [µg/mL]
C[C@H]1[C@H](NC(=O)/C(=N\OC(C)(C)C(=O)O)c2csc(N)n2)C(=O)N1S(=O)(=O)O [Aztreonam, reference compound]	≤ 0.125	32 (≈ 73.5 µM)	0.25 (≈ 0.574 µM)	32 (≈ 73.5 µM)	128 (≈ 294 µM)	64 (≈ 147 µM)	64 (≈ 147 µM)	64 (≈ 147 µM)	32 (≈ 73.5 µM)	1.62 ± 2.22	28.02 ± 1.08	27.16 ± 1.74	27.80 ± 2.37							
C[C@@H](O)[C@H]1C(=O)N2C(C(=O)O)=C(S[C@@H]3CN[C@H](C(=O)N(C)C)C3)[C@H](C)[C@H]12 [Meropenem, reference compound]	≤ 0.125			2 (≈ 5.22 µM)		64 (≈ 167 µM)			4 (≈ 10.4 µM)					≤ 0.125	128 (≈ 334 µM)	> 128	≤ 0.125	64 (≈ 167 µM)	128 (≈ 334 µM)	> 128

Source: patent US11459323B2, “Monocyclic β-lactam compound for treating bacterial infection” (MEDSHINE DISCOVERY INC., priority 2018, dated 2022)
